Measurements from PubChem BioAssay AID1919002 (Molecular Pharmacology Branch, DTP, NCI, 2023).
Values joined by “and” are separate entries in the source; they are usually repeats but may differ in a detail not shown here. Equal values may be shown once. Values belong to the compound of their own block, whether it stands above or below them.

Test system: 743489-274-T-PDC complex spheroid growth
Assay: Anticancer human tumor 743489-274-T-PDC patient-derived renal cell carcinoma cell line growth inhibition [AhR]
Conditions: for viability, T/C: stronger effect = lower value
Outline: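 Agents were dosed in half-log steps down from roughly clinical Cmax, or from 10 microM where Cmax was unknown, alone and with AhR antagonists. Read-out: percent test/control growth of tumor spheroids containing HUVEC and MSC stromal cells.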

[1] = curve of first compound, second compound 0.1 µM
[2] = curve of first compound, second compound 0.316 µM
[3] = curve of first compound, second compound 1 µM
[4] = curve of first compound, second compound 3.16 µM
[5] = curve of first compound, second compound 10 µM
[6] = second compound 0.1 µM, first compound 0.00316 µM
[7] = second compound 0.1 µM, first compound 0.01 µM
[8] = second compound 0.1 µM, first compound 0.0316 µM
[9] = second compound 0.1 µM, first compound 0.1 µM
[10] = second compound 0.1 µM, first compound 0.316 µM
[11] = second compound 0.1 µM, first compound 1 µM
[12] = second compound 0.316 µM, first compound 0.00316 µM
[13] = second compound 0.316 µM, first compound 0.01 µM
[14] = second compound 0.316 µM, first compound 0.0316 µM
[15] = second compound 0.316 µM, first compound 0.1 µM
[16] = second compound 0.316 µM, first compound 0.316 µM
[17] = second compound 0.316 µM, first compound 1 µM
[18] = second compound 1 µM, first compound 0.00316 µM
[19] = second compound 1 µM, first compound 0.01 µM
[20] = second compound 1 µM, first compound 0.0316 µM
[21] = second compound 1 µM, first compound 0.1 µM
[22] = second compound 1 µM, first compound 0.316 µM
[23] = second compound 1 µM, first compound 1 µM
[24] = second compound 3.16 µM, first compound 0.00316 µM
[25] = second compound 3.16 µM, first compound 0.01 µM
[26] = second compound 3.16 µM, first compound 0.0316 µM
[27] = second compound 3.16 µM, first compound 0.1 µM
[28] = second compound 3.16 µM, first compound 0.316 µM
[29] = second compound 3.16 µM, first compound 1 µM
[30] = second compound 10 µM, first compound 0.00316 µM
[31] = second compound 10 µM, first compound 0.01 µM
[32] = second compound 10 µM, first compound 0.0316 µM
[33] = second compound 10 µM, first compound 0.1 µM
[34] = second compound 10 µM, first compound 0.316 µM
[35] = second compound 10 µM, first compound 1 µM
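Also: spheroids exposed to agents for 7 days before readout.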
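For viability, T/C in this document: 100% = DMSO vehicle control wells.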

SMILES: Nc1ncn(C2CC(O)C(CO)O2)c(=O)n1 (stereo unspecified) + CC(CO)NC(=O)c1cc(-c2ccc(Cl)cc2)nn(-c2cnn(C)c2)c1=O
IC50 [1]: > 1000 nM
IC50 [2]: > 1000 nM
IC50 [3]: > 1000 nM
IC50 [4]: > 1000 nM
IC50 [5]: > 1000 nM
viability, T/C [6]: 88.6%
viability, T/C [7]: 93.4%
viability, T/C [8]: 98.4%
viability, T/C [9]: 87.5%
viability, T/C [10]: 99.4%
viability, T/C [11]: 91.4%
viability, T/C [12]: 80.4%
viability, T/C [13]: 89.9%
viability, T/C [14]: 91%
viability, T/C [15]: 98%
viability, T/C [16]: 84.5%
viability, T/C [17]: 85.3%
viability, T/C [18]: 94.8%
viability, T/C [19]: 93.2%
viability, T/C [20]: 89.9%
viability, T/C [21]: 94.7%
viability, T/C [22]: 101%
viability, T/C [23]: 88.6%
viability, T/C [24]: 95.2%
viability, T/C [25]: 85.2%
viability, T/C [26]: 96%
viability, T/C [27]: 92.3%
viability, T/C [28]: 85%
viability, T/C [29]: 84.3%
viability, T/C [30]: 88.2%
viability, T/C [31]: 96%
viability, T/C [32]: 88.7%
viability, T/C [33]: 93.9%
viability, T/C [34]: 82.9%
viability, T/C [35]: 107%

SMILES: CC[C@@]1(O)C(=O)OCc2c1cc1n(c2=O)Cc2cc3c(CN(C)C)c(O)ccc3nc2-1
viability, T/C (compound 0.000316 µM): 109% and 97.4% and 106%
viability, T/C (compound 0.001 µM): 110% and 94.7% and 90.2%
viability, T/C (compound 0.00316 µM): 107% and 97.5% and 93.5%
viability, T/C (compound 0.01 µM): 100% and 103% and 93.5%
viability, T/C (compound 0.0316 µM): 95% and 105% and 97.2%
viability, T/C (compound 0.1 µM): 96.3% and 83.8% and 91.8%
IC50 (curve of compound): > 100 nM

SMILES: COc1cc(C2c3cc4c(cc3C(OC3OC5COC(C)OC5C(O)C3O)C3COC(=O)C23)OCO4)cc(OC)c1O (stereo unspecified) + Cc1ccccc1N=Nc1ccc(NC(=O)c2ccnn2C)c(C)c1
IC50 [1]: > 10000 nM
IC50 [2]: > 10000 nM
IC50 [3]: > 10000 nM
IC50 [4]: > 10000 nM
IC50 [5]: > 10000 nM
viability, T/C [8]: 98.7%
viability, T/C [9]: 87%
viability, T/C [10]: 97.2%
viability, T/C [11]: 94.4%
viability, T/C (second compound 0.1 µM, first compound 3.16 µM): 98.3%
viability, T/C (second compound 0.1 µM, first compound 10 µM): 79.9%
viability, T/C [14]: 91.2%
viability, T/C [15]: 93.6%
viability, T/C [16]: 91.2%
viability, T/C [17]: 88.9%
viability, T/C (second compound 0.316 µM, first compound 3.16 µM): 77.9%
viability, T/C (second compound 0.316 µM, first compound 10 µM): 80.7%
viability, T/C [20]: 86.7%
viability, T/C [21]: 93.7%
viability, T/C [22]: 90.7%
viability, T/C [23]: 88.9%
viability, T/C (second compound 1 µM, first compound 3.16 µM): 90.4%
viability, T/C (second compound 1 µM, first compound 10 µM): 74.8%
viability, T/C [26]: 83.3%
viability, T/C [27]: 90.2%
viability, T/C [28]: 86.9%
viability, T/C [29]: 78.8%
viability, T/C (second compound 3.16 µM, first compound 3.16 µM): 78.6%
viability, T/C (second compound 3.16 µM, first compound 10 µM): 75.8%
viability, T/C [32]: 78.4%
viability, T/C [33]: 81.8%
viability, T/C [34]: 95.1%
viability, T/C [35]: 72%
viability, T/C (second compound 10 µM, first compound 3.16 µM): 69.4%
viability, T/C (second compound 10 µM, first compound 10 µM): 70.7%

SMILES: Nc1ncn(C2CC(O)C(CO)S2)c(=O)n1 (stereo unspecified)
viability, T/C (compound 0.000949 µM): 110% and 93.5% and 116%
viability, T/C (compound 0.003 µM): 104% and 98.1% and 105%
viability, T/C (compound 0.00949 µM): 96.2% and 94.2% and 111%
viability, T/C (compound 0.03 µM): 102% and 85.6% and 96.6%
viability, T/C (compound 0.0949 µM): 97.2% and 95% and 103%
viability, T/C (compound 0.3 µM): 97.2% and 89.2% and 103%
IC50 (curve of compound): > 300 nM

Further lines, with some results ahead:

IC50 [1]: > 3000 nM
IC50 [2]: > 3000 nM
IC50 [3]: > 3000 nM
IC50 [4]: > 3000 nM
IC50 [5]: > 3000 nM
SMILES: CCN(c1cc(-c2ccc(CN3CCOCC3)cc2)cc(C(=O)NCc2c(C)cc(C)[nH]c2=O)c1C)C1CCOCC1 + CC(CO)NC(=O)c1cc(-c2ccc(Cl)cc2)nn(-c2cnn(C)c2)c1=O
viability, T/C (second compound 0.1 µM, first compound 0.00949 µM): 103%
viability, T/C (second compound 0.1 µM, first compound 0.03 µM): 103%
viability, T/C (second compound 0.1 µM, first compound 0.0949 µM): 99.6%
viability, T/C (second compound 0.1 µM, first compound 0.3 µM): 93.5%
viability, T/C (second compound 0.1 µM, first compound 0.949 µM): 93.8%
viability, T/C (second compound 0.1 µM, first compound 3 µM): 112%
viability, T/C (second compound 0.316 µM, first compound 0.00949 µM): 97.6%
viability, T/C (second compound 0.316 µM, first compound 0.03 µM): 96.5%
viability, T/C (second compound 0.316 µM, first compound 0.0949 µM): 103%
viability, T/C (second compound 0.316 µM, first compound 0.3 µM): 102%
viability, T/C (second compound 0.316 µM, first compound 0.949 µM): 90.5%
viability, T/C (second compound 0.316 µM, first compound 3 µM): 92.6%
viability, T/C (second compound 1 µM, first compound 0.00949 µM): 104%
viability, T/C (second compound 1 µM, first compound 0.03 µM): 102%
viability, T/C (second compound 1 µM, first compound 0.0949 µM): 107%
viability, T/C (second compound 1 µM, first compound 0.3 µM): 92.4%
viability, T/C (second compound 1 µM, first compound 0.949 µM): 94%
viability, T/C (second compound 1 µM, first compound 3 µM): 106%
viability, T/C (second compound 3.16 µM, first compound 0.00949 µM): 84.4%
viability, T/C (second compound 3.16 µM, first compound 0.03 µM): 92.3%
viability, T/C (second compound 3.16 µM, first compound 0.0949 µM): 103%
viability, T/C (second compound 3.16 µM, first compound 0.3 µM): 82.6%
viability, T/C (second compound 3.16 µM, first compound 0.949 µM): 92.7%
viability, T/C (second compound 3.16 µM, first compound 3 µM): 98.8%
viability, T/C (second compound 10 µM, first compound 0.00949 µM): 105%
viability, T/C (second compound 10 µM, first compound 0.03 µM): 106%
viability, T/C (second compound 10 µM, first compound 0.0949 µM): 91.7%
viability, T/C (second compound 10 µM, first compound 0.3 µM): 104%
viability, T/C (second compound 10 µM, first compound 0.949 µM): 101%
viability, T/C (second compound 10 µM, first compound 3 µM): 91.1%

IC50 [1]: > 100 nM
IC50 [2]: > 100 nM
IC50 [3]: > 100 nM
IC50 [4]: > 100 nM
IC50 [5]: > 100 nM
SMILES: CC[C@@]1(O)C(=O)OCc2c1cc1n(c2=O)Cc2cc3c(CN(C)C)c(O)ccc3nc2-1 + CC(CO)NC(=O)c1cc(-c2ccc(Cl)cc2)nn(-c2cnn(C)c2)c1=O
viability, T/C (second compound 0.1 µM, first compound 0.000316 µM): 99.8%
viability, T/C (second compound 0.1 µM, first compound 0.001 µM): 97.9%
viability, T/C [6]: 91.4%
viability, T/C [7]: 94.4%
viability, T/C [8]: 86.6%
viability, T/C [9]: 86.4%
viability, T/C (second compound 0.316 µM, first compound 0.000316 µM): 90.7%
viability, T/C (second compound 0.316 µM, first compound 0.001 µM): 96.5%
viability, T/C [12]: 102%
viability, T/C [13]: 84.7%
viability, T/C [14]: 83.3%
viability, T/C [15]: 82.3%
viability, T/C (second compound 1 µM, first compound 0.000316 µM): 96.2%
viability, T/C (second compound 1 µM, first compound 0.001 µM): 98.9%
viability, T/C [18]: 95.4%
viability, T/C [19]: 87%
viability, T/C [20]: 86.2%
viability, T/C [21]: 79%
viability, T/C (second compound 3.16 µM, first compound 0.000316 µM): 91.2%
viability, T/C (second compound 3.16 µM, first compound 0.001 µM): 89.9%
viability, T/C [24]: 92.4%
viability, T/C [25]: 84%
viability, T/C [26]: 92.5%
viability, T/C [27]: 88.3%
viability, T/C (second compound 10 µM, first compound 0.000316 µM): 92.4%
viability, T/C (second compound 10 µM, first compound 0.001 µM): 92.7%
viability, T/C [30]: 109%
viability, T/C [31]: 92.4%
viability, T/C [32]: 85.9%
viability, T/C [33]: 81.4%

IC50 (curve of compound): > 1000 nM
SMILES: CC1COCCN1c1cc(-c2ccnn2C)c2ccnc(-c3ccn[nH]3)c2n1 (stereo unspecified)
viability, T/C (compound 0.00316 µM): 112% and 105% and 104%
viability, T/C (compound 0.01 µM): 106% and 114% and 100%
viability, T/C (compound 0.0316 µM): 101% (2×) and 104%
viability, T/C (compound 0.1 µM): 106% and 102% and 103%
viability, T/C (compound 0.316 µM): 101% and 86.3% and 100%
viability, T/C (compound 1 µM): 85.1% and 68% and 73.8%
